Source: the kinase profiling compilation of Christmann-Franck et al. (2016)
Each block holds one compound with its values, some of them ahead of it.

Experiments:
Experiment in all cases: radiometric filter-binding kinase assay
[1] = molecular target: MAPK15 (human) (UniProt Q8TD08)
[2] = molecular target: BRSK1 (human) (UniProt Q8TDC3)
[3] = molecular target: PLK1 (human) (UniProt P53350)
[4] = molecular target: FGFR1 (human) (UniProt P11362)
[5] = molecular target: SRPK1 (human) (UniProt Q96SB4)
[6] = molecular target: EEF2K (human) (UniProt O00418); conditions: compound 10.0 µM
[7] = molecular target: RPS6KA5 KD1 KD2 (human) (UniProt O75582)
[8] = molecular target: ERBB4 (human) (UniProt Q15303)
[9] = molecular target: MKNK2 (human) (UniProt Q9HBH9)
[10] = test system: PAK2 (human), Q13177 [T402E]
[11] = molecular target: CSK (human) (UniProt P41240)
[12] = molecular target: PAK7 (human) (UniProt Q9P286)
Chain of PAK7 (human) (Q9P286 whole entry, looked up): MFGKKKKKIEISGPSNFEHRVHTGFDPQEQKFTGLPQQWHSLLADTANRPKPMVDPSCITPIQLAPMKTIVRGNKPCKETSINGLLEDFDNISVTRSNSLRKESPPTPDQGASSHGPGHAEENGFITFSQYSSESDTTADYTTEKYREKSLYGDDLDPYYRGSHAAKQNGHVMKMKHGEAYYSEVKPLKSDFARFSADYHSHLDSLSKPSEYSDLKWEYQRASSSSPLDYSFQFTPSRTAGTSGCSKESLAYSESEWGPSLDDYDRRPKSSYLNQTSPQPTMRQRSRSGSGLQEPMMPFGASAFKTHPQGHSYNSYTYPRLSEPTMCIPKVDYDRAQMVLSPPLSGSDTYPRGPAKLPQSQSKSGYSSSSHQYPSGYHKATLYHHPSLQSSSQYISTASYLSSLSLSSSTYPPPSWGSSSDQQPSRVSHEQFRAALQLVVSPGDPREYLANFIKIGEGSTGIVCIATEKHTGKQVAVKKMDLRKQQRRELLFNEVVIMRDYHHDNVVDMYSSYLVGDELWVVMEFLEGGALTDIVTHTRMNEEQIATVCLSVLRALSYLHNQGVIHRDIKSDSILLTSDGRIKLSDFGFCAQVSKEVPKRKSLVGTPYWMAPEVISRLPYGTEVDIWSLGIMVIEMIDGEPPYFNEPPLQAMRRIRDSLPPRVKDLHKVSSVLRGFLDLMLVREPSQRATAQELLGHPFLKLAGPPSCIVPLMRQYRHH

[13] = molecular target: MAPKAPK3 (human) (UniProt Q16644)
[14] = molecular target: AURKA (human) (UniProt O14965)
[15] = molecular target: MAP3K5 (human) (UniProt Q99683)
[16] = molecular target: BRSK2 (human) (UniProt Q8IWQ3)
[17] = molecular target: MAPK9 (human) (UniProt P45984)
Chain of MAPK9 (human) (P45984 whole entry, looked up): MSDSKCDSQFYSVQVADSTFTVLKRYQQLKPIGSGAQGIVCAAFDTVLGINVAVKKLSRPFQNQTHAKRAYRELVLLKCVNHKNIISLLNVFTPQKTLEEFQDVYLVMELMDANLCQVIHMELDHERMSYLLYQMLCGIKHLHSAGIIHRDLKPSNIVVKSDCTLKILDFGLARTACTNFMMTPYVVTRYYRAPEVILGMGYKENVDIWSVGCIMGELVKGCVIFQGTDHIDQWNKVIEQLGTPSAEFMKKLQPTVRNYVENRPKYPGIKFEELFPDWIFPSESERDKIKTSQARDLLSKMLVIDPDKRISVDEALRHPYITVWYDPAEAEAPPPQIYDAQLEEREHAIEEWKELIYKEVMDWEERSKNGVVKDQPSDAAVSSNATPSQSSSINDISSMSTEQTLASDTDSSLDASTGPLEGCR

[18] = molecular target: GSK3B (human) (UniProt P49841)
Chain of GSK3B (human) (P49841 whole entry, looked up): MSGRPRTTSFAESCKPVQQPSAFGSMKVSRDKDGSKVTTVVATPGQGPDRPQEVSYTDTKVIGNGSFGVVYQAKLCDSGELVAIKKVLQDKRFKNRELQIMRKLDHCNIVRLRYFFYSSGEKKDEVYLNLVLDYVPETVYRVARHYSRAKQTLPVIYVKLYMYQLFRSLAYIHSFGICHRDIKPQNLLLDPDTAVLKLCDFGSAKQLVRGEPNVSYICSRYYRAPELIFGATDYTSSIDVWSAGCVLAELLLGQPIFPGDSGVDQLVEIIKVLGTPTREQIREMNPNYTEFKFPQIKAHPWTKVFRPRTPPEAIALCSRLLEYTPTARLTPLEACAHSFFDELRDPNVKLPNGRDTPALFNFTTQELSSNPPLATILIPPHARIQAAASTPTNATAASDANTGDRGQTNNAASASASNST

[19] = molecular target: MAP3K1 (human) (UniProt Q13233)
[20] = molecular target: CSNK1D (human) (UniProt P48730)
Chain of CSNK1D (human) (P48730 whole entry, looked up): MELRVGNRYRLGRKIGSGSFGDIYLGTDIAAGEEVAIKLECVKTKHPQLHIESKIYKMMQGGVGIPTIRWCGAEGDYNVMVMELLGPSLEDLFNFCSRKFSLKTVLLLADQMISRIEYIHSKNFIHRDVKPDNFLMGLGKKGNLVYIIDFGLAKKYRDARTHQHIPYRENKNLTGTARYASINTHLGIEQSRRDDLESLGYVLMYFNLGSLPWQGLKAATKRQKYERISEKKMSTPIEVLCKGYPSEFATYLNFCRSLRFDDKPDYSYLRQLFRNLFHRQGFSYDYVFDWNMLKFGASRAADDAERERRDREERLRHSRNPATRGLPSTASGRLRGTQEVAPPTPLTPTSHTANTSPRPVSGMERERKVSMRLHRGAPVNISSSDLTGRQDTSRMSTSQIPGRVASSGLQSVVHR

[21] = molecular target: EPHA4 (human) (UniProt P54764)
[22] = molecular target: MAP2K2 (human) (UniProt P36507)
[23] = molecular target: MAPK8 (human) (UniProt P45983)
[24] = molecular target: MAP2K6 (human) (UniProt P52564)
Chain of MAP2K6 (human) (P52564 whole entry, looked up): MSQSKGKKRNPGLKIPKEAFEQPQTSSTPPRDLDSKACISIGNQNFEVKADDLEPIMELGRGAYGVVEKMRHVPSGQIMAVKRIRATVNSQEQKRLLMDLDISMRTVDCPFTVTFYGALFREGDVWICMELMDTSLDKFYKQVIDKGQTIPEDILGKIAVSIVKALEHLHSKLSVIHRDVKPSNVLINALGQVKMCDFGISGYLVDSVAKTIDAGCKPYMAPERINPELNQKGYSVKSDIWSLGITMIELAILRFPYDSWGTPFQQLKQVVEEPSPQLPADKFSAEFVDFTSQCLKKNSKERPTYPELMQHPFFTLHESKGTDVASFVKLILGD

[25] = molecular target: HIPK1 (human) (UniProt Q86Z02)
Chain of HIPK1 (human) (Q86Z02 whole entry, looked up): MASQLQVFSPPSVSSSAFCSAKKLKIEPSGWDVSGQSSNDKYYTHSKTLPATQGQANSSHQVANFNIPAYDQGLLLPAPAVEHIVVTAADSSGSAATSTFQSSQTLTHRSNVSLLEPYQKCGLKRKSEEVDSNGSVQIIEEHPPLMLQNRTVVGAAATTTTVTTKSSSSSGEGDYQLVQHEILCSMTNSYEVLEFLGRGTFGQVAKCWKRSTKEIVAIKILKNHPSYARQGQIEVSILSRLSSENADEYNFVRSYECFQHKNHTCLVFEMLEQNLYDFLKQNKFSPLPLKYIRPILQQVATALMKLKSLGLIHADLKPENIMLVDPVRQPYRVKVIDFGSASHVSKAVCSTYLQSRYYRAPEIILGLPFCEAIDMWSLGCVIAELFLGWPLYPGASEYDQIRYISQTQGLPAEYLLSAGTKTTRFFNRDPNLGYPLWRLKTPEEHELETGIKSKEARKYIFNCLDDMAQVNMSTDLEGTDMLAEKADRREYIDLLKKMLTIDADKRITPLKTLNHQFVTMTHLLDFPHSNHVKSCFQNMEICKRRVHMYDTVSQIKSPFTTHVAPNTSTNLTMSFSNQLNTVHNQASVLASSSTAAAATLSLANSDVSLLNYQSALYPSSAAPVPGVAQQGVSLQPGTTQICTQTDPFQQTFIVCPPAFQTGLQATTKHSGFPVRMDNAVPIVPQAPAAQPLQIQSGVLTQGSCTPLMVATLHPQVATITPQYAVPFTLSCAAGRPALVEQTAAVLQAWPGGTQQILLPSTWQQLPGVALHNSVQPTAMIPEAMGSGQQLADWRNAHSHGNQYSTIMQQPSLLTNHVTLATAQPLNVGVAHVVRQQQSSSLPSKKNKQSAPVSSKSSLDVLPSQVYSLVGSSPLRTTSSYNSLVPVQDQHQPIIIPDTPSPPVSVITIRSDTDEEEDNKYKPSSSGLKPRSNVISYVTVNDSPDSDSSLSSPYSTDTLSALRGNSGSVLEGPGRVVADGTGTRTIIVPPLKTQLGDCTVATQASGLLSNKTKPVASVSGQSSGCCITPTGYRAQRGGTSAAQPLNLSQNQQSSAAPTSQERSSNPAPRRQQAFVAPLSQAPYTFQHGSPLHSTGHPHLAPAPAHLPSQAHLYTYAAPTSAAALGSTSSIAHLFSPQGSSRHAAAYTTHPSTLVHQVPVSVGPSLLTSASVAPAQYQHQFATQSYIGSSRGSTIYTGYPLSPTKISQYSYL

[26] = molecular target: IKBKB (human) (UniProt O14920)
[27] = molecular target: HIPK3 (human) (UniProt Q9H422)
[28] = molecular target: MAPK3 (human) (UniProt P27361)
[29] = molecular target: MAPK1 (human) (UniProt P28482)
[30] = molecular target: BTK (human) (UniProt Q06187)
Chain of BTK (human) (Q06187 whole entry, looked up): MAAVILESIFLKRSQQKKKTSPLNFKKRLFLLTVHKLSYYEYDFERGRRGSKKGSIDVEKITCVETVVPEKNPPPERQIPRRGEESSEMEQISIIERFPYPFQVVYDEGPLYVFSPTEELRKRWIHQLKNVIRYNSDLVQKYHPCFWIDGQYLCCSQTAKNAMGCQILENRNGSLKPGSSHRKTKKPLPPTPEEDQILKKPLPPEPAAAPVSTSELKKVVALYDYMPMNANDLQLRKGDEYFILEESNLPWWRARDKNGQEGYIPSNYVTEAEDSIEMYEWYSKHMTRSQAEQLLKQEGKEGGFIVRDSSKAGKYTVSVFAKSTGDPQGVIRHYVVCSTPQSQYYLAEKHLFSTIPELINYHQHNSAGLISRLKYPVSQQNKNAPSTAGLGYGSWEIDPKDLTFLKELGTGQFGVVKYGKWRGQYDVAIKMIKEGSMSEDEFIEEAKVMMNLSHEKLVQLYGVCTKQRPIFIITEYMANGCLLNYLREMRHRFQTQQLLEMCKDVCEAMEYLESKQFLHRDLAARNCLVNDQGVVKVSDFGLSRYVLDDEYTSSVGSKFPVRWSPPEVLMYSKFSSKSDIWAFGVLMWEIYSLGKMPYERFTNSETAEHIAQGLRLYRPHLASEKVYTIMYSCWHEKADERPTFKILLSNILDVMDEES

[31] = molecular target: TBK1 (human) (UniProt Q9UHD2); conditions: compound 10.0 µM
[32] = molecular target: STK11 CAB39 STRADA (human) (UniProt Q9Y376+Q7RTN6+Q15831)
[33] = molecular target: NEK6 (human) (UniProt Q9HC98)
[34] = test system: AKT1 (human), P31749 [S473D]
[35] = molecular target: RPS6KA3 KD1 KD2 (human) (UniProt P51812); conditions: compound 10.0 µM

Chain of MAPK15 (human) (Q8TD08 whole entry, looked up): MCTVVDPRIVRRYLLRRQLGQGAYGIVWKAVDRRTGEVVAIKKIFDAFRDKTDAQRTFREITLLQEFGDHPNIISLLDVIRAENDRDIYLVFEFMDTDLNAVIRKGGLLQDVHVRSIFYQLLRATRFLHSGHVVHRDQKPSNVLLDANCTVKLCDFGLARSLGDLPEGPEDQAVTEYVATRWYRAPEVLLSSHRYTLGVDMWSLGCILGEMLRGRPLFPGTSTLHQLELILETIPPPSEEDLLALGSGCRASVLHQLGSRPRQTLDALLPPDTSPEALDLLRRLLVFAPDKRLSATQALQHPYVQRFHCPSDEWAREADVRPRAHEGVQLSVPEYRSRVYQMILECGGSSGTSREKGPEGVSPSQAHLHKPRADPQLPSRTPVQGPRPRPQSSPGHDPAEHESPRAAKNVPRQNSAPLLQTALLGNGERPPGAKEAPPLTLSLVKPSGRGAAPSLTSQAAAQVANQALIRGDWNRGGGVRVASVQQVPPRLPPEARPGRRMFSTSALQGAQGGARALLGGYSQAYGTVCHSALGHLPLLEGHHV

residual activity ([2]; compound 1.0 µM): 83%
residual activity ([2]; compound 10.0 µM): 89%
residual activity ([3]; compound 1.0 µM): 95%
residual activity ([3]; compound 10.0 µM): 111%
residual activity ([4]; compound 1.0 µM): 111%
residual activity ([5]; compound 1.0 µM): 94%
residual activity ([5]; compound 10.0 µM): 80%
residual activity [6]: 75%
residual activity ([7]; compound 1.0 µM): 110%
residual activity ([7]; compound 10.0 µM): 46%
residual activity ([8]; compound 1.0 µM): 106%
residual activity ([8]; compound 10.0 µM): 104%
residual activity ([9]; compound 1.0 µM): 91%
residual activity ([9]; compound 10.0 µM): 109%
residual activity ([10]; compound 1.0 µM): 107%
residual activity ([10]; compound 10.0 µM): 75%
residual activity ([11]; compound 1.0 µM): 97%
residual activity ([11]; compound 10.0 µM): 85%
residual activity ([12]; compound 1.0 µM): 87%
residual activity ([12]; compound 10.0 µM): 107%
residual activity ([13]; compound 1.0 µM): 103%
residual activity ([13]; compound 10.0 µM): 97%
residual activity ([14]; compound 1.0 µM): 95%
residual activity ([14]; compound 10.0 µM): 107%
residual activity ([15]; compound 1.0 µM): 86%
residual activity ([15]; compound 10.0 µM): 83%
residual activity ([16]; compound 1.0 µM): 76%
residual activity ([16]; compound 10.0 µM): 64%
residual activity ([17]; compound 1.0 µM): 102%
residual activity ([17]; compound 10.0 µM): 96%
residual activity ([18]; compound 1.0 µM): 110%
residual activity ([18]; compound 10.0 µM): 119%
residual activity ([19]; compound 1.0 µM): 93%
residual activity ([19]; compound 10.0 µM): 103%
residual activity ([20]; compound 1.0 µM): 96%
residual activity ([20]; compound 10.0 µM): 93%
residual activity ([21]; compound 1.0 µM): 80%
residual activity ([21]; compound 10.0 µM): 91%
residual activity ([22]; compound 1.0 µM): 123%
residual activity ([22]; compound 10.0 µM): 113%
residual activity ([23]; compound 1.0 µM): 107%
residual activity ([23]; compound 10.0 µM): 103%
residual activity ([24]; compound 1.0 µM): 82%
residual activity ([24]; compound 10.0 µM): 74%
residual activity ([25]; compound 1.0 µM): 104%
residual activity ([25]; compound 10.0 µM): 90%
residual activity ([26]; compound 1.0 µM): 87%
residual activity ([26]; compound 10.0 µM): 88%
residual activity ([27]; compound 1.0 µM): 94%
residual activity ([27]; compound 10.0 µM): 64%
residual activity ([28]; compound 1.0 µM): 80%
residual activity ([28]; compound 10.0 µM): 63%
residual activity ([29]; compound 1.0 µM): 101%
residual activity ([29]; compound 10.0 µM): 88%
residual activity ([30]; compound 1.0 µM): 98%
residual activity ([30]; compound 10.0 µM): 96%
residual activity [31]: 83%
residual activity ([32]; compound 1.0 µM): 103%
residual activity ([32]; compound 10.0 µM): 99%
residual activity ([33]; compound 1.0 µM): 115%
residual activity ([33]; compound 10.0 µM): 63%
residual activity ([34]; compound 1.0 µM): 91%
residual activity ([34]; compound 10.0 µM): 53%
Structure (SMILES): NCC(=O)Nc1ccc(-n2nc(C(F)(F)F)cc2-c2ccc3c(ccc4ccccc43)c2)cc1
residual activity ([1]; compound 1.0 µM): 79%
residual activity ([1]; compound 10.0 µM): 75%

residual activity ([2]; compound 10.0 µM): 109%
residual activity ([3]; compound 10.0 µM): 99%
residual activity ([4]; compound 10.0 µM): 106%
residual activity ([5]; compound 10.0 µM): 82%
residual activity [6]: 79%
residual activity ([8]; compound 10.0 µM): 105%
residual activity ([9]; compound 10.0 µM): 92%
residual activity ([10]; compound 10.0 µM): 98%
residual activity ([11]; compound 10.0 µM): 90%
residual activity ([12]; compound 10.0 µM): 92%
residual activity ([13]; compound 10.0 µM): 90%
residual activity ([14]; compound 10.0 µM): 99%
residual activity ([15]; compound 10.0 µM): 101%
residual activity ([16]; compound 10.0 µM): 108%
residual activity ([17]; compound 10.0 µM): 87%
residual activity ([18]; compound 10.0 µM): 85%
residual activity ([19]; compound 10.0 µM): 85%
residual activity ([20]; compound 10.0 µM): 79%
residual activity ([21]; compound 10.0 µM): 90%
residual activity ([22]; compound 10.0 µM): 99%
residual activity ([23]; compound 10.0 µM): 88%
residual activity ([24]; compound 10.0 µM): 95%
residual activity ([25]; compound 10.0 µM): 94%
residual activity ([26]; compound 10.0 µM): 89%
residual activity ([27]; compound 10.0 µM): 101%
residual activity ([28]; compound 10.0 µM): 86%
residual activity ([29]; compound 10.0 µM): 90%
residual activity ([30]; compound 10.0 µM): 86%
residual activity [31]: 85%
residual activity ([32]; compound 10.0 µM): 97%
residual activity [35]: 86%
residual activity ([33]; compound 10.0 µM): 78%
residual activity ([34]; compound 10.0 µM): 97%
Structure (SMILES): O=S(=O)(c1ccc(F)c2nonc12)N1CCN(c2ncc(C(F)(F)F)cc2Cl)CC1
residual activity ([1]; compound 10.0 µM): 79%
